Results published in patent US6455541B1, “Suppression, by 5-lipoxygenase inhibitors, of bone resorption” (Board of Regents, The University of Texas System, priority 1994, dated 2002).
Where “and” joins values, the source holds several entries; their conditions need not be identical. Equal entries are not always repeated.

What was measured:
C433 cells = assay: Production of osteoclast-stimulating activity by C433 cells (conditioned medium bioassayed for TRAP in avian osteoclasts); type: cell-based, human; details: flurbiprofen 10^−5 M; indomethacin 10^−6 M; nordihydroguaiaretic acid 10^−6, 10^−5 or 10^−4 M
Protocol: FIG. 3A, FIG. 3B, FIG. 3C and FIG. 3D. Chemical characterization of activity. FIG. 3A. C433-conditioned medium was treated with ultraviolet-light (UV) for 24 h or placed in a boiling water bath (100° C.) for 15 min and bioassayed. FIG. 3B. amino peptidase M (A), carboxypeptidase (C), or Pronase-CB (P) were incubated in the presence of C433-conditioned medium for 12 h at 37° C. FIG. 3C. […] The resultant conditioned medium was bioassayed for activity. FIG. 3D. […] Conditioned medium was bioassayed for induction of TRAP activity in avian osteoclasts.
C433 cells were grown in 10% fetal bovine serum (Whittaker, Walkersville, Md.) 50% RPMI, 50% McCoys (Flow, McLean, Va.) until a density of 10^4 cells/ml was obtained, at which time the cells were harvested, washed, and placed in serum-free DMEM plus 10^−8 M, 1,25-(OH)2D3 for 48 h before harvest of conditioned medium. […] This conditioned medium was applied to a prewetted C18 Sep-Pak (Millipore, Waters, Milford, Mass.), and bound material was extracted using ethyl acetate. This material was dried under nitrogen and resuspended in water, it acetic acid and analyzed by high pressure measure liquid chromatography (HPLC) (Waters, Milford, Mass.) applied to a C8 semipreparative 25 cm×10 mm reverse phase column (Keystone Scientific, Inc., Bellefonte, Pa.) at 2 ml/min. The gradient was 0-100% methanol, 1% acetic acid over 60 min with 6-ml fractions collected. The fractions were dried under nitrogen, and those fractions to be assayed for osteoclast stimulating activity were stabilized with 20 μl of 10% bovine serum albumin. Fractions to be used for gas chromatography-mass spectrometric analysis were prepared for derivatization.

neonatal mouse calvariae = assay: Neonatal mouse (murine) calvarial assay, 45Ca release; type: cell-based; details: for 45Ca release, Factor alone (Table II): IL-1 5 × 10^−10M, TNF 2 × 10^−10M, Lymphotoxin 5 × 10^−9M, PTH 4 ng/ml
Protocol: The assay was performed as described by Gowen et al. (1983). Timed pregnant mice were injected with ^45Ca 2 days before parturition. Half-calvaria were removed from the 1-2-day-old pups and preincubated for 24 h in BGJb medium at 37° C. in a humidified atmosphere of 5% CO2 before transfer to fresh media with or without test substances for 48 h. The bones were incubated for a further 72 h and media and bones collected. Bone-resorbing activity was expressed as the percentage of the total ^45Ca released into the medium.

[1] = test system: isolated avian osteoclasts; assay: TRAP activity in isolated avian osteoclasts; type: cell-based, Gallus domesticus; details: 10^−8 M stimulates suboptimally
Protocol: Avian osteoclasts were isolated from medullary bone of laying White Leghorn hens Gallus domesticus (Pioneer Animal Supply, Kingswheel, Ohio) as described previously by Zambonin-Zallone and Teti (1981). In brief, bone marrow suspensions from the medullary bone of femora were filtered through Nytex cloth (110 μm, t'etko, Elmsford, N.Y.), centrifuged for 5 min at 1200 rpm, and the cell pellet resuspended in 0.2% NaCl for 3 min to lyse erythrocytes. After layering the cells on 100% fetal bovine serum for 1 h, sedimented cells were further filtered through Nytex filters (55 μm). Cells were harvested, resuspended in α-minimal Eagle's medium (GIBCO) containing 10 fetal bovine serum, with penicillin (100 units/ml), streptomycin (100 μg/ml), and Ara-C, to inhibit proliferation of nonosteoclastic cells. Cells were plated in 24- or 48-well plates (Costar, Cambridge, Mass.) at 1×10^4 cells/well and incubated at 37° C. in 10% CO2 humidified air for 48 h, after which they were washed to remove nonadherent cells. When matured osteoclasts were observed experiments were begun and terminated within 48 h.
Osteoclast TRAP activity was measured using fluorescence spectroscopy as described by Chambers et al. (1987) with minor modifications. In brief, media from osteoclast cultures were harvested and stored at −70° C. until ready for assay.
The cells were washed with phosphate-buffered saline and harvested in 0.5 ml of Triton X-100 (0.05%, w/v). Aliquots of media or lysate 30 μl) were incubated with 170 μl of 2 mM methylumbelliferyl phosphate, pH 5.0, in 0.48 M acetate buffer (0.48 M sodium acetate, 0.48 M acetic acid, pH 5.0) and 30 mM tartaric acid. Samples were incubated for 30 min at 37° C. and the reaction terminated with 100 μl of stop solution containing 50 mM glycine, 50 mM EDTA, pH 10.4. Fluorescence was measured at excitation 360 nm and emission 448 nm using a fluorimeter (Fluoroskan, Flow Instruments). Enzyme activity was expressed as micromoles of methylumbelliferyl phosphate hydrolyzed/min/μg of protein and the protein content measured by the technique of Lowry et al. (1951).

isolated rat osteoclasts = assay: Disaggregated rat osteoclast pit formation assay on sperm whale dentine; type: cell-based
Protocol: Quantitation of the effects of isolated osteoclasts on calcified matrices was determined using minor modifications of the disaggregated osteoclast resorption assay as described by Boyde et al. (1984). Sperm whale dentine (0.25×7×7 mm) was prepared using a Buehler low speed diamond saw (Buehler, Lake Bluff, Ill.) followed by sonication (15 min) in several changes of distilled water. Slices were sterilized using ultraviolet light.
Neonatal Sprague-Dawley rats (2-3 days) were sacrificed by decapitation, the femurs and tibias were removed, scraped free of adherent tissue, and trimmed free of the epiphyses. The bones from one litter were combined and quickly minced using a scalpel blade in 2 ml of 199 medium and then vigorously mixed with a pipette in an 8-ml tube, allowed to settle for 10 s, and then 100 μl of the suspension was added to each well for a total of 16 wells in a 48-well microtiter plate containing sperm whale dentine (approximately four neonates are used per 16 wells). The cells were incubated at 37° C. for 30 min at which time the dentine was removed, washed in media, and placed in a fresh 48-well plate containing 250 μl of test medium.
Osteoclasts were stained for TRAP and counted and then pit numbers were counted following toluidine blue (0.1% w/v) staining by light microscopy. The plan area of matrix resorbed was quantitated using a computer-assisted morphometric program on a Bioquant System IV analysis system (R & M Biometrics, Nashville, Tenn.).
Quantitation of the effects of isolated neonatal rat osteoclasts on calcified matrices was determined using minor modifications of the disaggregated osteoclast resorption assay as described by Boyde et al (1984). Briefly rat osteoclasts isolated as described by Chambers et al. (1983) were dispersed on prewetted (AMEM plus 5% FBS) slices of sperm whale dentine. Cultures were performed in 48 well-microtiter plates in humidified air (10% CO2) at 37° C. in αMEM medium (one slice/well in 200 μl medium). Numbers of osteoclasts and resorption lacunae were quantitated as described above for the avian osteoclasts.

[2] = 1,25D3 10^−10M + MK886 2.5 μg/ml
[3] = IL-1 1 × 10^−10M + MK886 2.5 μg/ml

Molecule: CC(C(=O)O)c1ccc(-c2ccccc2)c(F)c1 (centres unmarked) [Flurbiprofen, flurbiprofen]
- effect on production of C433 activity (C433 cells): no significant effects

Molecule: CCCCC/C=C\C[C@@H](O)/C=C/C=C/C=C\[C@@H](O)CCCC(=O)O [LTB4]
- stimulation of bone resorption in neonatal mouse calvariae (in words) (neonatal mouse calvariae): found to stimulate osteoclastic bone resorption
- concentration showing statistically significant resorption stimulation (neonatal mouse calvariae; dose response, FIG. 8C): 10^−8 to 10^−6 M

Molecule: CCCCC/C=C\C\C=C/C=C/C=C/[C@@H](SC[C@H](N)C(=O)NCC(=O)O)[C@@H](O)CCCC(=O)O [LTD4, leukotriene D4]
- concentration of optimal stimulation of TRAP activity [1]: 10^−10 M

Molecule: CCCCC/C=C\C\C=C/C=C/C=C/[C@@H](SC[C@H](N)C(=O)O)[C@@H](O)CCCC(=O)O [LTE4, leukotriene E4]
- stimulation of pit formation (isolated rat osteoclasts; 10^−10 M): stimulated

Molecule: CC(C)c1ccc2c(c1)c(SC(C)(C)C)c(CC(C)(C)C(=O)O)n2Cc1ccc(Cl)cc1 [MK886]
- inhibition of PTH and PTHrP-induced bone resorption (isolated rat osteoclasts; NDGA 10^−6M, MK886 1 μg/ml, ZM 230,487 10 ng/ml, 20 hours): inhibition of the bone resorption was seen
- order of inhibitory effectiveness (isolated rat osteoclasts; PTH and PTHrP-induced bone resorption, NDGA 10^−6M, MK886 1 μg/ml, ZM 230,487 10 ng/ml): ZM230487>MK886>NDGA
- inhibition of 1,25(OH)2 vitamin D3-induced bone resorption (in words) (neonatal mouse calvariae; 1,25(OH)2 vitamin D3 as factor): significantly inhibited
- 45Ca release, factor + MK886 (neonatal mouse calvariae; [2]): 32.1%
- % Inhibition (neonatal mouse calvariae; [2]): 23.4%
- % Inhibition (neonatal mouse calvariae; AAY4 LPS 25 μg/ml + MK886): 20.9%
- Ca^45 Release, LPS + MK886 (neonatal mouse calvariae; AAY4 LPS 25 μg/ml + MK886 (concentration not given)): 22.6%
- inhibition of LPS-induced bone resorption (in words) (neonatal mouse calvariae; AaY4 LPS and/or WR14 LPS): only mildly inhibited
- 45Ca release, factor + MK886 (neonatal mouse calvariae; [3]): 34.9%
- % Inhibition (neonatal mouse calvariae; [3]): 23.0%
- inhibition of IL-1-induced bone resorption (in words) (neonatal mouse calvariae; IL-1 as factor): significant inhibition of Interleukin-1 induced bone resorption was not noted
- 45Ca release, MK886 alone (neonatal mouse calvariae; MK886 2.5 μg/ml, no factor): 9.6% and 14.2%
- % Inhibition (neonatal mouse calvariae; WR14 LPS 50 ng/ml + MK886): 8.2%
- Ca^45 Release, LPS + MK886 (neonatal mouse calvariae; WR14 LPS 50 ng/ml + MK886 (concentration not given)): 32.8%

Molecule: COc1ccc2c(c1)c(CC(=O)O)c(C)n2C(=O)c1ccc(Cl)cc1 [indomethacin]
- effect on production of C433 activity (C433 cells): no significant effects

Molecule: IL-1: interleukin-1, bone resorbing factor
- 45Ca release, factor alone (Table IV) (neonatal mouse calvariae; 1,25D3 10^−10M, IL-1 1 × 10^−10M): 38.9%
- 45Ca release, Factor alone (Table II) (neonatal mouse calvariae; 1,25D3 10^−10M): 27.7% and 31.2%
- 45Ca release, Factor alone (Table VII) (neonatal mouse calvariae; IL-1β 5 × 10^−10M, TNF 5 × 10^−10M, LPS WR14 50 ng/ml): 32.0%

B1: Lymphotoxin: bone resorbing factor (protein, UniProt P01374 35-205, looked up)
Lymphotoxin-alpha: LPGVGLTPSAAQTARQHPKMHLAHSTLKPAAHLIGDPSKQNSLLWRANTDRAFLQDGFSLSNNSLLVPTSGIYFVYSQVVFSGKAYSPKATSSPLYLAHEVQLFSSQYPFHVPLLSSQKMVYPGLQEPWLHSMYHGAAFQLTQGDQLSTHTDGIPHLVLSPSTVFFGAFAL
- 45Ca release, Factor alone (Table II) (neonatal mouse calvariae; 1,25D3 10^−10M): 35.0% and 42.8%

B2: PTH: parathyroid hormone (protein, UniProt P01270 32-115, looked up)
Parathyroid hormone: SVSEIQLMHNLGKHLNSMERVEWLRKKLQDVHNFVALGAPLAPRDAGSQRPRKKEDNVLVESHEKSLGEADKADVNVLTKAKSQ
modifications: Parathyroid hormone
- 45Ca release, Factor alone (Table II) (neonatal mouse calvariae; 1,25D3 10^−10M): 37.0% and 39.9% and 29.8%
- % Total Calcium Released, PTH alone (Table VI) (neonatal mouse calvariae; PTH 10 ng/ml): 30.5 ± 2.4%
